Data: patent US9579317B2, “Peptide-drug conjugates” (JiaRui Biopharmaceuticals, Ltd., priority 2014, dated 2017)

Experiments:
Human plasma stability = assay: Human plasma stability
Experimental: 100 μL aliquots were removed at the time points of 0, 0.25, 0.5, 1, 2, 4, 6 hours and diluted with 400 μL cold acetonitrile containing tolbutamide (200 ng/mL) as internal standard. The samples were centrifuged at 14,000 rpm for 4 minutes. 100 μL of above supernatants were diluted with 300 μL of 0.1% formic acid HPLC water and 10 μL was taken for LC/MS/MS analysis (column: C-18; mobile phase: 0.1% formic acid in water/0.1% formic acid in acetonitrile; ion transition: Q1 ion (m/z)=840.5, Q2 ion (m/z)=462.2).

HCT116 = assay: cells; assay type: cell-based, human; settings: 72 hours, n = 3, mean
Experimental: (§1) Monolayer cultures of human carcinoma cells were harvested using trypsin-EDTA, and the cells counted and resuspended to 1×10^5/mL in RPMI-1640 or DMEM containing 10% FBS. Cells (0.1 mL/well) were added to each well of 96 well microtiter plates and incubated overnight at 37° C. in a humidified atmosphere of 5% CO2. […] All dilutions were performed in triplicate. The drug treated cells were incubated for another 72 hours at 37° C. in a humidified atmosphere of 5% CO2. 50 μL of cold TCA (50%, wt/vol) was added to each well and incubated the plates at 4° C. for 1 hour. The plates were washed with slow-running tap water for three times and the dried at room temperature. 50 μL of Sulforhodamine B solution (0.4%, wt/vol) was added to each well and the plates were left at room temperature for 1 hour. The plates were rinsed with acetic acid solution (1%, vol/vol) to remove the unbound dye and dried at room temperature. 200 μL of 10 mM Tris base solution was added to each well and the plates were shaken on a gyratory shaker for 15 minutes to solubilize the protein-bound dye. Well optical density at 510 nm was measured in a microplate reader, and the IC50 was calculated by GraphPad from three separated experiments with triplicate in each experiment and expressed as mean (Table 1).

HepG2 = assay: cells; assay type: cell-based, human; settings: 72 hours, n = 3, mean
Experimental: as §1

[1] = test system: CT-26 syngenic colon cancer model; assay: In vivo antitumor activity, subcutaneous CT-26 syngenic colon cancer model; parameters: species or system Balb/c mice; settings: QW, intravenous, three injections
Experimental: The tumoricidal effect of peptide-drug conjugate N^α-succinamic acid-Ala-Ala-Asn-PABC-mitomycin [8] was evaluated on subcutaneous CT-26 syngenic colon cancer model in Balb/c mice. Each mouse was inoculated subcutaneously at the right flank region with CT-26 tumor cells (5×10^5) in 0.1 mL of PBS.

Balb/c mice = assay: In vivo maximum tolerated dose (MTD) in Balb/c mice; parameters: mortality: dose or concentration left out as unconfirmed
[2] = 25, 50 and 100 mg/kg, once per week, three injections total for 24 days

| SMILES | free drug mitomycin detected (Human plasma stability; human plasma incubation, 10 μM, 37° C.) | half-life at 10 μM (Human plasma stability; human, plasma) | IC50 (HCT116) | IC50 (HepG2) | tumor growth T/C versus untreated control ([1]; 50 mg/kg, p<0.01) | appearance (Balb/c mice; [2]) | body weight (loss) (Balb/c mice; [2]) | increase of mice maximum tolerated dose (MTD) as compared with parent drug mitomycin (Balb/c mice; Balb/c mice) | IC50 (HCT116; Homo sapiens, HCT-116) | IC50 (HepG2; Homo sapiens, HepG2) | tumor growth T/C ([1]; 5 mg/kg (MTD dose)) | mortality (Balb/c mice) |
| --- | --- | --- | --- | --- | --- | --- | --- | --- | --- | --- | --- | --- |
| CO[C@@]12[C@H](COC(N)=O)C3=C(C(=O)C(C)=C(N)C3=O)N1C[C@H]1[C@@H]2N1C(=O)OCc1ccc(NC(=O)[C@H](CC(N)=O)NC(=O)[C@H](C)NC(=O)[C@H](C)NC(=O)CCC(=O)O)cc1 [compound 8, N^α-succinamic acid-Ala-Ala-Asn-PABC-mitomycin] | Less than 2% | > 900 min | 6.65 µM | 2480 nM | 36.4% | no abnormal appearance | < 10% | at least 20 fold | – | – | – | – |
| CO[C@@]12[C@H](COC(N)=O)C3=C(C(=O)C(C)=C(N)C3=O)N1C[C@@H]1N[C@@H]12 [mitomycin, reference compound] | – | – | – | – | – | – | – | – | 0.116 µM | 143 nM | 50.4% | animal death was observed |
